One experiment has as its system 5-alpha-DHT anti-serum. The note with it: antibody provided by Dr. Alan L. Johnson; cited from earlier work.
Experiment [1] can be described thus: Growth of castrate male turkeys implanted with 19-nortestosterone (Study III, Table V). In kind it is in vivo, Large White Nicholas turkeys. Particulars: castrated male, 5-cm capsule. The procedure: The same large white strain of turkey (received 1 day posthatching from Nicholas Breeding Farms, CA) was used in all studies. Poults were reared in deep litter brooder pens from 1 day posthatch and exposed to constant light until initiation of Studies I and III or through completion in the case of Study II. Studies I and III were conducted in an environmentally controlled room (photoperiod 12L:12D) with birds housed individually in wire-floored layer cages (space dimensions of 0.31 W×0.46 L×0.53 H meters per cage). Water and feed (Agway Game and Turkey Starter Crumbles) was available at all times. Turkeys were rank ordered by weight and distributed into treatment groups of equal mean body weights at the start of each Study (I, II and III).
Body weight determinations were made at the second and final week of each study, and several organs and tissues were excised and immediately weighed at the time of necropsy. Final shank-toe length, as an indicator of skeletal growth, was also determined. Birds were sacrificed via exanguination by laceration of the jugular vein. Specific details on the experimental design and conduct of each turkey study will follow.
Male and female turkeys were either sham-operated or castrated (Quigley, 1962) at 4 weeks of age in the same manner as previously described for chickens. However, due to the small size and extremely viscous nature of the turkey testicle at 2 weeks of age, birds were castrated at 4 weeks of age. […] This was important since when a portion of the testicle is left behind or dropped back inside the body cavity after having been torn loose, the bird will become what is called in the poultry industry, a "slip".
Pre- (4 weeks) and post-surgically (1 week), birds were floor-reared together on pine shavings. At 5 weeks of age, birds were transferred to individual layer cages (dimensions as in Study I) in an environmentally controlled animal room. One week later (6 weeks of age), birds were assigned to 4 groups (9 birds/group). Group 1 was composed of intact males (sham-operated); Group 2, intact females (sham-operated); Group 3, castrated males implanted that same day with cholesterol-filled Silastic polysiloxane capsules (5.0-cm); and Group 4, castrated males implanted that same day with 19-nortestosterone-filled Silastic polysiloxane capsules (5.0-cm). Castrated males were rank ordered by weight prior to group assignment. Male and female groups were composed of birds which had the intermediate body weights from a pool of 15 birds for each sex. Birds were randomized (planned) into cages among tiers (5 cages per tier) and racks, similar to that of Study I, in order to eliminate any rack (4) or tier (3 vertical) effects within the room. Birds served as individual treatment units for all parameters measured including feed consumption (i.e., supplied with individual box-type feeders) and were placed into every other cage starting on the top tier in rack 1.

A further experiment has as its system testosterone antiserum. The experiment can be described thus: Radioimmunoassay for testosterone: antiserum cross-reaction and inhibition of binding. The note with it: standard curve. The arrangement: species or system rabbits. The procedure: Plasma concentrations of testosterone were assayed using component kits from Immuchem Corporation (Carson, Calif.) in which charcoal-stripped chicken plasma (free of testosterone) was used to make up the standards. The antibody is covalently bound to the inner surface of each polypropylene tube (testosterone-19-carboxymethylether-BSA was the antigen used to generate the antiserum in rabbits). To these tubes (at room temperature), a 50 microliter volume of either standard or unknown plasma as added directly without extraction. Following this, a 1000-microliter volume (^~ 40,000 cpm) of ^125 I-testosterone (purified by HPLC and radio-iodinated at position 19; Immuchem Corp.) in phosphosaline buffer-gelatin (pH 7.0) was added and the mixture was vortex mixed briefly. After a 2 hour incubation at room temperature, tubes were placed into styrofoam holding racks and the supernatant decanted onto tin trays lined with newspapers. Residual supernatant left on inside walls of tubes was removed by everting styrofoam holding racks and impacting them onto dry absorbent paper towels. At this point, the assay tubes, with their wall bound antibody-antigen complexes, were counted on a Beckman 5500 gamma counter to determine the radioactivity (^125 I-testosterone) which was antibody-bound. The plasma concentrations of testosterone in unknown samples were determine based on the standards (from 0.10-10 ng/ml) in charcoal-stripped chicken plasma included with each assay.
The Immuchem testosterone antiserum cross-reacts 100% with testosterone, 7.8% with 5-alpha-DHT, 0.56% with 4-adrosten-3,17-dione, and less than 0.01% with 5-alpha-androstane-3-alpha,17-beta-diol and estrogens (manufacturer statement). […] The mean between-assay CV for low and high plasma pools was less than 11.0% (n=5).

Where [2] appears, read: change vs castrated control, unsigned (increase).

As for `C[C@]12CCC(=O)C[C@@H]1CC[C@@H]1[C@@H]2CC[C@]2(C)[C@@H](O)CC[C@@H]12` [5-alpha-DHT, 5-alpha-dihydrotestosterone], in the experiment on 5-alpha-DHT anti-serum, the “reaction with 5-alpha-DHT anti-serum (Ford's-F/1)” value is listed as 100%.

With `C[C@]12CC[C@H]3[C@@H](CCC4=CC(=O)CC[C@@H]43)[C@@H]1CC[C@@H]2O` [19-Nortestosterone, 19-nortestosterone], in experiment [1], the “Abdominal Adipose” value is given as 4.92 ± 0.91, the “Average Daily Gain” value worked out at 106 ± 3 g, the “Feed/Gain Ratio” value is on record as 1.86 ± 0.05 and the “Final 9-Week Body Weight” value came out at 3643 ± 64 g. In experiment [1], the “Final 9-Week Shank-Toe Length” value stood at 21.44 ± 0.18 cm and the “Right Breast Muscle” value came to 303 ± 13 g. Moreover, the “Abdominal Adipose (%)” value in experiment [1] (change vs castrated control, unsigned (decrease)) came out at 65.6%. In experiment [1] (setting [2]), the “Average Daily Gain (%)” value worked out at 16.5%, the “Final 9-Week Body Weight (%)” value is 5.9% and the “Right Breast Muscle (%)” value was determined as 14.8%. Also, the “Feed Efficiency” value in experiment [1] (change vs castrated control, column head prints (g), cells %) was 16.6%.

On to `C[C@]12CC[C@H]3[C@@H](CCC4=CC(=O)CC[C@@]43C)[C@@H]1CC[C@@H]2O` [Testosterone, testosterone], for which, in the experiment on testosterone antiserum (n=5), the “80 percent inhibition of binding” value stood at 462.5±1.5 pg/tube and the “Twenty percent inhibition of binding” value is recorded as 15.8±1.7 pg/tube. Further, the “50 percent inhibition of binding” value with testosterone antiserum (n=5, 1.95 pg to 500 pg) is listed as 78.8±9.6 pg/tube.

Source of the values: patent publication US5208032A, “Increasing the growth of turkeys using implant of 19-nortestosterone” (Rutgers, The State University of New Jersey, priority 1992, dated 1993).
